Measured values as given in ChEMBL document CHEMBL5726505, “Heteroaryl compounds as IRAK inhibitors and uses thereof” (2017).

Molecular target: T1, Interleukin-1 receptor-associated kinase 4 (Homo sapiens, UniProt Q9NWZ3)
T1 sequence (Q9NWZ3 whole entry): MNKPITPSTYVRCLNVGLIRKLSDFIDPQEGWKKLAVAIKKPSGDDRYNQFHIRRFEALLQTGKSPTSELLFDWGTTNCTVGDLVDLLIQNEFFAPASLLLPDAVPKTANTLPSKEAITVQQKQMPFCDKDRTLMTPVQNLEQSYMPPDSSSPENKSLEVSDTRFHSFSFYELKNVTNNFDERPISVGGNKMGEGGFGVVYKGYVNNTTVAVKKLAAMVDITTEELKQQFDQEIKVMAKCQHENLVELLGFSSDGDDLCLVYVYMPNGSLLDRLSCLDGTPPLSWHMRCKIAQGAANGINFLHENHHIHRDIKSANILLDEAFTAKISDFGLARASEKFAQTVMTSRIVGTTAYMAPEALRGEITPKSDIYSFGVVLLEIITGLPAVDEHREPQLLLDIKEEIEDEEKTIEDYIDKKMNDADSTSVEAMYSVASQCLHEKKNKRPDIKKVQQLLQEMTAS
Test: Enzymatic Assay: IRAK4 is a human purified recombinant enzyme (His-TEV-[…] ([…]). IRAK4 hydrolyses ATP, autophosphorylates and phosphorylates a Serine/Threonine generic peptidic substrate (STK: 61ST1BLC from CisBio International based in Bagnols/Cèze FR).Measurement of IRAK-4 inhibition was performed in streptavidin coated 384well FlashPlate (PerkinElmer #SMP410A). His-TEV-IRAK4 (20 ng/well), ATP (2 μM, [33P]ATP 0.25 µCi/well), STK1-biotin peptide (300 nM) and compounds in DMSO (range of concentrations from 20 µM to 1 nM) or controls (2% DMSO) were incubated for 3 hours at 30° C. in assay buffer: Hepes pH7.0 50 mM, Fatty acid-free BSA 0.1%, Dithiothreitol DTT 2 mM, MgCl2 10 mM, EGTA 0.5 mM, Tween-20 0.01%, MnCl2 5 mM.

**Q.** Cn1cc(-c2cccc(-c3ncc(-c4cnn(C)c4)c(NCC4CCCN(C(=O)OC(C)(C)C)C4)n3)c2)cn1 (centres undefined) was tested. Which IC50 did it give?
**A.** Its IC50 is > 5 µM.

**Q.** Which IC50 does the source give for Cn1cc(-c2cccc(-c3ncc(-c4cnn(C)c4)c(N[C@H]4CCN(S(C)(=O)=O)C4)n3)c2)cn1 here?
**A.** Its IC50 is < 0.1 µM.

**Q.** How did the IC50 turn out when Cn1cc(-c2cccc(-c3ncc(-c4ccn(C)n4)c(O[C@@H]4CCC[C@@H](N)[C@@H]4O)n3)c2)cn1 was run?
**A.** The IC50 was < 0.1 µM.

**Q.** For Cc1nnc(-c2cnc(-c3cccc(-c4cnn(C)c4)c3)nc2NC2CCN(S(C)(=O)=O)CC2)s1, which IC50 is on record?
**A.** The IC50 was < 0.1 µM.
